Where two headings read alike, the source gives them in different places.
Assays:
[1] = system: E. coli ZJ487 (NDM-1/MCR-1); assay: microbe, parasite or virus in culture; type: cell-based, Escherichia coli; details: for MIC: Escherichia coli; for MIC of Mep combination: Mep with the named analogue at 32 μg/mL; for FIC Index: analogue + Mep; for MIC of analogues of OA combination: analogue with Mep
E. coli ZJ478 = type: in vivo, C57BL/6J male mice; details: for survival rate: 120 h
TEM-1 = TEM-1 (Escherichia coli, UniProt P62593); assay: biochemical; details: IC50, purified TEM-1
Chain of TEM-1 (P62593 24-286 limits assumed): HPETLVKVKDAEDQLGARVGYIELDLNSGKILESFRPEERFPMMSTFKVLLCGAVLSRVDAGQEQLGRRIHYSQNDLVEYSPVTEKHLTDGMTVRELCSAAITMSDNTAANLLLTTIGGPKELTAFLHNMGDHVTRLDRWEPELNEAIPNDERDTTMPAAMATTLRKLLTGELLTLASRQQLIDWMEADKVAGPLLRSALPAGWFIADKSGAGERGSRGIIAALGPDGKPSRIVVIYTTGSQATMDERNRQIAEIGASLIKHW

OXA-1 = OXA-1 (Escherichia coli, UniProt P13661); assay: biochemical; parameters: species or system E. coli; details: IC50, purified OXA-1
Chain of OXA-1 (P13661 26-276): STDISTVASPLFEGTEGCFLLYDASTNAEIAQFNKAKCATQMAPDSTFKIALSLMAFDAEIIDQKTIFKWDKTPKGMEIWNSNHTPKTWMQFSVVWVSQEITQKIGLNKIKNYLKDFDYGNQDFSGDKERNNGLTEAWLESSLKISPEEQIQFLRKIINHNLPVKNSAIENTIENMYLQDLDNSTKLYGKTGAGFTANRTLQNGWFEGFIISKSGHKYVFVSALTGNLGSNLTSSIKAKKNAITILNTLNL

[2] = system: NDM-1-Asp199Ala, NDM-1-Thr201Ala, and NDM-1-Phe240Ala; type: biochemical
[3] = system: AmpC β-lactamase, E. coli BL21 (pET21a); type: biochemical; details: co-culture or co-incubation with OA
NDM-1 F240A = NDM-1 F240A (Klebsiella pneumoniae, UniProt C7C422, F240A); assay: biochemical; type: binding
A549 cells = type: cell-based, human; details: 6 h
MH-S cells = type: cell-based, mouse; details: 6 h
[4] = system: E. coli BL21 (pET28a-SP-NDM-1); type: cell-based, Escherichia coli; details: OA 32 μg/mL with Mep; postinoculation
E. coli ZJ487 = type: cell-based, Escherichia coli; details: OA 32 μg/mL with Mep; postinoculation
S. aureus USA300 [5] = type: cell-based, Staphylococcus aureus; details: OA combined with penicillin G
S. aureus USA300 [6] = type: in vivo, C57BL/6J male mice; details: for survival rate: 96 h; for activity of β-lactamases in bronchoalveolar lavage fluid: 36 h
NDM-1 = NDM-1 (Escherichia coli, UniProt E5KIY2); type: biochemical, E. coli; details: OA analogues, Figure 3G
suilysin (SLY) = suilysin (SLY) (Streptococcus suis, UniProt Q55996); assay: biochemical
[7] = OA combined with penicillin G, 36 h postinfection
[8] = monotherapy 50 mg/kg subcutaneous every 8 h
[9] = named compound combined with Mep 5 mg/kg
[10] = read-out: MIC of analogues of OA alone, ZJ487, Table 1, median (range)

C[C@@H](O)[C@H]1C(=O)N2C(C(=O)O)=C(S[C@@H]3CN[C@H](C(=O)N(C)C)C3)[C@H](C)[C@H]12 [Meropenem, meropenem, reference compound]
MIC ([1]; read-out: MIC of Mep alone, ZJ487, Table 1, median (range)): 32 µg/mL
MIC of Mep alone ([1]; ZJ487, Table 1, median (range), listed as Mep): 16(16–32) μg/mL
survival rate (E. coli ZJ478; Mep 5 mg/kg alone, subcutaneous every 8 h): 44.4%

CC1(C)CC[C@]2(C(=O)O)CC[C@]3(C)C(=CC[C@@H]4[C@@]5(C)CC[C@H](O)C(C)(C)[C@@H]5CC[C@]43C)[C@@H]2C1 [OA, oleanolic acid]
IC50 (TEM-1): > 109 µM
IC50 (OXA-1): > 109 µM
inhibitory effect on activity of NDM-1 mutants [2]: significant inhibitory effect was not detected
inhibitory effect on β-lactamase activity in culture supernatant [3]: No significant inhibitory effect
Kd (NDM-1 F240A): 14.3 µM
concentration protecting cells from hemolysin-mediated cell injury (A549 cells): 1 to 4 µg/mL
concentration protecting cells from hemolysin-mediated cell injury (MH-S cells): 1 to 4 µg/mL
time to complete elimination [4]: ≤ 6 h
time to complete elimination (E. coli ZJ487): ≤ 3 h
bactericidal effect (S. aureus USA300 [5]): significantly eliminate, but not thoroughly kill
survival rate (S. aureus USA300 [6]; OA 50 mg/kg combined with penicillin G 50 mg/kg, subcutaneous every 8 h): 75.0%
lung lesions (S. aureus USA300 [6]; OA combined with penicillin G): greatly alleviated
IL-1β, IL-6, and TNF-α levels in bronchoalveolar lavage fluid (S. aureus USA300 [6]; [7]): significant decreases
number of bacteria in the lungs (S. aureus USA300 [6]; [7]): significant reduction
bacterial burden and inflammatory responses (S. aureus USA300 [6]; OA monotherapy): also inhibited
survival rate (S. aureus USA300 [6]; [8]): 43.8%
activity of β-lactamases in bronchoalveolar lavage fluid (S. aureus USA300 [6]; monotherapy): inhibited
activity of β-lactamases in bronchoalveolar lavage fluid (S. aureus USA300 [6]; penicillin G combined with OA): inhibited
E. coli colonization in the liver and spleen (E. coli ZJ478; OA combined with Mep, 36 h postinfection): significantly inhibited
survival rate (E. coli ZJ478; [9]): 61.1%

CC1(C)S[C@@H]2[C@H](NC(=O)Cc3ccccc3)C(=O)N2[C@H]1C(=O)O [Penicillin G, penicillin G, reference compound]
survival rate (S. aureus USA300 [6]; [8]): 25.0%
activity of β-lactamases in bronchoalveolar lavage fluid (S. aureus USA300 [6]; monotherapy): such inhibition was not observed

CC1(C)CC[C@]2(C(=O)O)CC[C@]3(C)C(=CC[C@@H]4[C@@]5(C)C[C@@H](O)[C@H](O)[C@@](C)(CO)[C@@H]5CC[C@]43C)[C@@H]2C1 [arjunolic acid]
MIC [1, 10]: 512 µg/mL
MIC of Mep combination ([1]; ZJ487, median (range)): 8(4–16) μg/mL
FIC Index ([1]; ZJ487): 0.40 ± 0.14
MIC of analogues of OA combination ([1]; ZJ487): 32 μg/mL

C[C@H]1[C@H](C)CC[C@]2(C(=O)O)CC[C@]3(C)C(=CC[C@@H]4[C@@]5(C)C[C@@H](O)[C@H](O)C(C)(C)[C@@H]5CC[C@]43C)[C@H]12 [corosolic acid]
MIC [1, 10]: 512 µg/mL
MIC of Mep combination ([1]; ZJ487, median (range)): 2(2–4) μg/mL
FIC Index ([1]; ZJ487): 0.17 ± 0.04
MIC of analogues of OA combination ([1]; ZJ487): 32 μg/mL
inhibitory effect against NDM-1 (NDM-1): robust inhibitory effects
IC50 (suilysin (SLY)): < 2.12 µM
survival rate (E. coli ZJ478; [9]): 77.8%

CC1(C)[C@@H](O[C@H]2O[C@H](C(=O)O)[C@@H](O)[C@H](O)[C@H]2O[C@@H]2O[C@H](C(=O)O)[C@@H](O)[C@H](O)[C@H]2O)CC[C@]2(C)[C@H]3C(=O)C=C4[C@@H]5C[C@@](C)(C(=O)O)CC[C@]5(C)CC[C@@]4(C)[C@]3(C)CC[C@@H]12 [glycyrrhizic acid]
MIC [1, 10]: 512 µg/mL
MIC of Mep combination ([1]; ZJ487, median (range)): 8(4–16) μg/mL
FIC Index ([1]; ZJ487): 0.40 ± 0.14
MIC of analogues of OA combination ([1]; ZJ487): 32 μg/mL

CC1(C)CC[C@]2(C(=O)O)CC[C@]3(C)C(=CC[C@@H]4[C@@]5(C)C[C@@H](O)[C@H](O)C(C)(C)[C@@H]5CC[C@]43C)[C@@H]2C1 [maslinic acid]
MIC [1, 10]: 512 µg/mL
MIC of Mep combination ([1]; ZJ487, median (range)): 4(2–4) μg/mL
FIC Index ([1]; ZJ487): 0.38 ± 0.00
MIC of analogues of OA combination ([1]; ZJ487): 32 μg/mL

C[C@H]1[C@H](C)CC[C@]2(C(=O)O)CC[C@]3(C)C(=CC[C@@H]4[C@@]5(C)CC[C@H](O)C(C)(C)[C@@H]5CC[C@]43C)[C@H]12 [ursolic acid]
MIC [1, 10]: 512 µg/mL
MIC of Mep combination ([1]; ZJ487, median (range)): 2(2–4) μg/mL
FIC Index ([1]; ZJ487): 0.17 ± 0.04
MIC of analogues of OA combination ([1]; ZJ487): 32 μg/mL
inhibitory effect against NDM-1 (NDM-1): robust inhibitory effects

α-boswellic acid
MIC of Mep combination ([1]; ZJ487, median (range)): 16(16) μg/mL
MIC of analogues of OA alone ([1]; ZJ487, Table 1, median (range)): 512(≥512) μg/mL
FIC Index ([1]; ZJ487): 0.73 ± 0.29
MIC of analogues of OA combination ([1]; ZJ487): 32 μg/mL
